Laboratory results as given in the NIST ThermoML archive (doi:10.1021/je700193w).

How the values were obtained:
[1] = xn = mol fraction of the nth substance listed; settings: 101 kPa, Liquid
[2] = excess molar enthalpy (molar enthalpy of mixing); xn = mol fraction of the nth substance listed; settings: 101 kPa, Liquid

C=C1CCC2CC1C2(C)C (stereo not drawn) [β-pinene] + CC(C)CO
Settings | excess molar enthalpy, [2] [kcal/mol] | mass density, [1] [kg/m3] | speed of sound, [1] [m/s]
283.15 K, x1 = 0.0529 | 0.0158 | – | –
283.15 K, x1 = 0.0566 | – | 815.77 | 1248.3
283.15 K, x1 = 0.1066 | – | 820.99 | 1257.1
283.15 K, x1 = 0.109 | 0.0306 | – | –
283.15 K, x1 = 0.2011 | – | 829.88 | 1270.2
283.15 K, x1 = 0.2159 | 0.0605 | – | –
283.15 K, x1 = 0.2931 | – | 837.56 | 1281.1
283.15 K, x1 = 0.3175 | 0.0851 | – | –
283.15 K, x1 = 0.395 | – | 845.26 | 1292.2
283.15 K, x1 = 0.4299 | 0.108 | – | –
283.15 K, x1 = 0.4928 | – | 851.82 | 1302
283.15 K, x1 = 0.5331 | 0.124 | – | –
283.15 K, x1 = 0.6112 | – | 859.03 | 1313.9
283.15 K, x1 = 0.6229 | 0.13 | – | –
283.15 K, x1 = 0.6906 | – | 863.45 | 1321.1
283.15 K, x1 = 0.7198 | 0.127 | – | –
283.15 K, x1 = 0.7939 | – | 868.88 | 1330.7
283.15 K, x1 = 0.8249 | 0.111 | – | –
283.15 K, x1 = 0.8682 | – | 872.61 | 1337.7
283.15 K, x1 = 0.9096 | 0.0841 | – | –
283.15 K, x1 = 0.9393 | – | 876.05 | 1346.2
283.15 K, x1 = 0.9686 | 0.0672 | – | –
298.15 K, x1 = 0.0481 | – | 803.39 | 1195.7
298.15 K, x1 = 0.0529 | 0.0217 | – | –
298.15 K, x1 = 0.109 | 0.044 | – | –
298.15 K, x1 = 0.1107 | – | 809.85 | 1203.9
298.15 K, x1 = 0.201 | – | 818.16 | 1214.9
298.15 K, x1 = 0.2159 | 0.0841 | – | –
298.15 K, x1 = 0.2969 | – | 826.03 | 1225.1
298.15 K, x1 = 0.3175 | 0.115 | – | –
298.15 K, x1 = 0.4002 | – | 833.57 | 1235.2
298.15 K, x1 = 0.4299 | 0.141 | – | –
298.15 K, x1 = 0.4896 | – | 839.51 | 1243.9
298.15 K, x1 = 0.5331 | 0.156 | – | –
298.15 K, x1 = 0.5856 | – | 845.33 | 1252.2
298.15 K, x1 = 0.6229 | 0.161 | – | –
298.15 K, x1 = 0.6785 | – | 850.56 | 1260.4
298.15 K, x1 = 0.7198 | 0.152 | – | –
298.15 K, x1 = 0.7841 | – | 856.21 | 1270.1
298.15 K, x1 = 0.8249 | 0.131 | – | –
298.15 K, x1 = 0.8875 | – | 861.41 | 1280.4
298.15 K, x1 = 0.9096 | 0.101 | – | –
298.15 K, x1 = 0.933 | – | 863.62 | 1285.2
298.15 K, x1 = 0.9686 | 0.086 | – | –
303.15 K, x1 = 0.0505 | – | 799.78 | 1181.7
303.15 K, x1 = 0.0529 | 0.0275 | – | –
303.15 K, x1 = 0.1044 | – | 805.23 | 1188.4
303.15 K, x1 = 0.109 | 0.0566 | – | –
303.15 K, x1 = 0.2023 | – | 814.23 | 1200.2
303.15 K, x1 = 0.2159 | 0.116 | – | –
303.15 K, x1 = 0.2999 | – | 822.12 | 1210.6
303.15 K, x1 = 0.3175 | 0.154 | – | –
303.15 K, x1 = 0.3929 | – | 828.94 | 1219.2
303.15 K, x1 = 0.4299 | 0.185 | – | –
303.15 K, x1 = 0.4877 | – | 835.22 | 1227.7
303.15 K, x1 = 0.5331 | 0.2 | – | –
303.15 K, x1 = 0.6108 | – | 842.66 | 1238.3
303.15 K, x1 = 0.6229 | 0.204 | – | –
303.15 K, x1 = 0.6829 | – | 846.72 | 1244.6
303.15 K, x1 = 0.7198 | 0.191 | – | –
303.15 K, x1 = 0.7908 | – | 852.45 | 1254.4
303.15 K, x1 = 0.8249 | 0.162 | – | –
303.15 K, x1 = 0.8846 | – | 857.17 | 1263.9
303.15 K, x1 = 0.9096 | 0.124 | – | –
303.15 K, x1 = 0.9299 | – | 859.39 | 1268.9
303.15 K, x1 = 0.9686 | 0.103 | – | –
313.15 K, x1 = 0.0401 | – | 790.45 | 1143.3
313.15 K, x1 = 0.0529 | 0.0356 | – | –
313.15 K, x1 = 0.1042 | – | 796.91 | 1150.9
313.15 K, x1 = 0.109 | 0.0743 | – | –
313.15 K, x1 = 0.2004 | – | 805.6 | 1160.9
313.15 K, x1 = 0.2159 | 0.141 | – | –
313.15 K, x1 = 0.3012 | – | 813.68 | 1170.6
313.15 K, x1 = 0.3175 | 0.187 | – | –
313.15 K, x1 = 0.3902 | – | 820.11 | 1178.2
313.15 K, x1 = 0.4299 | 0.221 | – | –
313.15 K, x1 = 0.51 | – | 827.98 | 1187.7
313.15 K, x1 = 0.5331 | 0.239 | – | –
313.15 K, x1 = 0.6202 | – | 834.55 | 1196.8
313.15 K, x1 = 0.6229 | 0.242 | – | –
313.15 K, x1 = 0.6847 | – | 838.19 | 1202.2
313.15 K, x1 = 0.7198 | 0.225 | – | –
313.15 K, x1 = 0.7768 | – | 843.06 | 1210.2
313.15 K, x1 = 0.8249 | 0.192 | – | –
313.15 K, x1 = 0.8969 | – | 849.21 | 1222.1
313.15 K, x1 = 0.9096 | 0.147 | – | –
313.15 K, x1 = 0.9601 | – | 852.46 | 1230.5
313.15 K, x1 = 0.9686 | 0.123 | – | –
323.15 K, x1 = 0.0529 | 0.044 | – | –
323.15 K, x1 = 0.0547 | – | 783.66 | 1114.2
323.15 K, x1 = 0.1021 | – | 788.33 | 1119.3
323.15 K, x1 = 0.109 | 0.0839 | – | –
323.15 K, x1 = 0.207 | – | 797.66 | 1129.4
323.15 K, x1 = 0.2159 | 0.163 | – | –
323.15 K, x1 = 0.2989 | – | 804.85 | 1136.8
323.15 K, x1 = 0.3175 | 0.215 | – | –
323.15 K, x1 = 0.4024 | – | 812.32 | 1144.6
323.15 K, x1 = 0.4299 | 0.248 | – | –
323.15 K, x1 = 0.5041 | – | 818.98 | 1152.7
323.15 K, x1 = 0.5331 | 0.273 | – | –
323.15 K, x1 = 0.6074 | – | 825.2 | 1160.6
323.15 K, x1 = 0.6229 | 0.274 | – | –
323.15 K, x1 = 0.6965 | – | 830.27 | 1167.7
323.15 K, x1 = 0.7198 | 0.255 | – | –
323.15 K, x1 = 0.8063 | – | 836.02 | 1177.1
323.15 K, x1 = 0.8249 | 0.22 | – | –
323.15 K, x1 = 0.8887 | – | 840.5 | 1184.7
323.15 K, x1 = 0.9096 | 0.169 | – | –
323.15 K, x1 = 0.9618 | – | 844.41 | 1192.6
323.15 K, x1 = 0.9686 | 0.141 | – | –
